By EC50 is commonly meant the concentration giving half of the maximal effect.

Experimental findings from paper PMC4619705 (PLoS ONE, 2015) are described below.

Assay type in all cases: cell-based
Test [1] deals with T1, γ2L homomeric receptors (Homo sapiens, UniProt P18507).
T1 construct: expressed in transfected cells; host or cells: Xenopus laevis oocytes injected with γ2L mRNA alone (high amounts)
As to the kind of experiment: Two-electrode voltage clamp of γ2L homomeric receptors expressed in Xenopus oocytes. The conditions noted are these: 100 μM. From the text: (§1) Human complementary DNA (cDNA) of GABAAR α2 subunit (vector: pCMV6-XL5) was purchased from OriGene Technologies (Rockville, MD, USA), and the human β3 (vector: pGEMHE) and γ2L (vector: pCDM8) subunits were generous gifts from Dr. Bjarke Ebert (H. Lundbeck A/S, Valby, Denmark) and Dr. Paul Whiting (Merck, Sharp and Dohme Research Laboratories, Harlow, Essex, UK) respectively. […] Plasmid vectors with the cDNA incorporated were linearised using appropriate restriction endonucleases (α2: SmaI; β3: NheI; γ2L: NotI). Capped RNA transcripts were synthesised from linearised plasmids using the mMessage mMachine T7 transcript kit from Ambion (Austin, TX, USA). Purified messenger RNA (mRNA) was dissolved in nuclease-free water (Ambion, Austin, TX, USA), and its quality was assessed using 1% agarose gel electrophoresis. The concentration of each subunit mRNA was measured using Nanodrop ND-100 UV-Vis spectrophotometer (Thermo Fisher Scientific, North Ryde, NSW, Australia).
(§2) Various combinations of α2, β3 and γ2L subunit mRNAs were mixed to different ratios as stated in the text, and diluted accordingly to a concentration of 5 ng/μL (unless otherwise stated). […] Injected oocytes were stored in ND96 storage solution supplemented with 50 μg/mL gentamycin and tetracycline at 18°C. Two-electrode voltage clamp recordings were performed on oocytes 2–4 days post-injection at room temperature (20–25°C) using a GeneClamp 500B amplifier (ADInstruments, Sydney, NSW, Australia) or a Warner OC-725C Oocyte Clamp (Warner Instrument Corp, Hamden, CT, USA). All experiments were conducted at a holding potential of –60 mV, and data were acquired with a PowerLab 2/25, and LabChart (version 5.0.2) software (ADInstruments, Sydney, NSW, Australia). The recording microelectrodes (0.2–1.1 MΩ) were generated from capillary glass (Harvard Apparatus, Holliston, MA, USA) using a single-stage glass microelectrode puller (Narishige, Tokyo, Japan), and were filled with 3 M KCl solution. The perfusion system was built using a series of polycarbonate, high-density polyethylene two-way stopcocks (Qosina, Edgewood, NY, USA), connected through tubing to the recording chamber (100 μL), where the oocyte was continuously perfused with ND96 recording solution (96 mM NaCl, 2 mM KCl, 1 mM MgCl2, 1.8 mM CaCl2, 5 mM HEPES hemisodium; pH 7.4) at an approximate rate of 5 mL/min.
(§3) Perfusates containing these chemicals were made up fresh before each application. The concentration-response curves of agonists were obtained by exposing oocytes to increasing concentrations of agonists until the currents peaked. […] All experiments were performed using at least two different batches of oocytes.

Test [2] deals with T2, β3γ2L GABAARs (Homo sapiens, UniProt P18507+P28472).
T2 construct: expressed in transfected cells; host or cells: Xenopus laevis oocytes injected with β3 and γ2L mRNAs at 1:1 to 1:100
T2 sequence (P18507 40-475, one chain of several): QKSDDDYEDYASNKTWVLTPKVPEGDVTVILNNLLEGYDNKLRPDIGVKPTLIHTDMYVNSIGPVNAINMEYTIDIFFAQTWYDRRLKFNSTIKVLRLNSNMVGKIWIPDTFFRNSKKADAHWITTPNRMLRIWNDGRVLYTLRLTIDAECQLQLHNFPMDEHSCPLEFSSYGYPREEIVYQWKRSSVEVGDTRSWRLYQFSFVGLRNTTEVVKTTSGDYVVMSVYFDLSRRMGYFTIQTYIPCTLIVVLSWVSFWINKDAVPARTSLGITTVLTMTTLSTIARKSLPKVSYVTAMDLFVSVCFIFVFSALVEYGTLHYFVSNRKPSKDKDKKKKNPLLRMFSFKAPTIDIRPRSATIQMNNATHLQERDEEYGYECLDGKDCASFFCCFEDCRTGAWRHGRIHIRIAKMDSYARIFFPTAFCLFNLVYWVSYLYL
As to the kind of experiment: Two-electrode voltage clamp of β3γ2L GABAARs expressed at various β3:γ2L mRNA ratios in Xenopus oocytes. The conditions noted are these: for EC50: EC50 (95% CI) of direct activation; for Effect of Zn2+ alone on baseline current: 100 μM.
Text: as §1
as §2, with “All experiments were conducted at a holding potential of –60 mV, and data were acquired with a PowerLab 2/25, and LabChart (version 5.0.2) software (ADInstruments, Sydney, NSW, Australia).” left out
as §3
(§4) Prism (version 5.04; GraphPad Software, La Jolla, CA, USA) was used for data analysis.
(§5) In all cases, we constrained the bottom to 0, and when fitting data to the biphasic model, the Hill slopes were constrained to 1. Statistical comparisons of results for different injection ratios of β3γ2L receptors were performed using ANOVA with Tukey’s post-hoc test. When comparing results from different injection ratios of β3γ2L receptors with α2β3γ2L receptors, the ANOVA Dunnett’s test was used. Pairwise comparisons were performed using Student’s t test. Statistical significance was attained at p < 0.05.

Test [3] concerns the target T3, α2γ2L receptors (Homo sapiens, UniProt P18507+P47869).
T3 construct: expressed in transfected cells; host or cells: Xenopus laevis oocytes injected with α2 and γ2L mRNAs
As to the kind of experiment: Two-electrode voltage clamp of binary α2γ2L receptors expressed in Xenopus oocytes.
Text: as §1, §2, §3
(In general: Two-electrode voltage clamp holds a large cell at a set potential and records current.)

In test [4] the target is T4, β3 homomeric receptors (Homo sapiens, UniProt P28472).
T4 construct: expressed in transfected cells; host or cells: Xenopus laevis oocytes injected with β3 mRNA (5 ng/oocyte)
T4 sequence (P28472 26-473): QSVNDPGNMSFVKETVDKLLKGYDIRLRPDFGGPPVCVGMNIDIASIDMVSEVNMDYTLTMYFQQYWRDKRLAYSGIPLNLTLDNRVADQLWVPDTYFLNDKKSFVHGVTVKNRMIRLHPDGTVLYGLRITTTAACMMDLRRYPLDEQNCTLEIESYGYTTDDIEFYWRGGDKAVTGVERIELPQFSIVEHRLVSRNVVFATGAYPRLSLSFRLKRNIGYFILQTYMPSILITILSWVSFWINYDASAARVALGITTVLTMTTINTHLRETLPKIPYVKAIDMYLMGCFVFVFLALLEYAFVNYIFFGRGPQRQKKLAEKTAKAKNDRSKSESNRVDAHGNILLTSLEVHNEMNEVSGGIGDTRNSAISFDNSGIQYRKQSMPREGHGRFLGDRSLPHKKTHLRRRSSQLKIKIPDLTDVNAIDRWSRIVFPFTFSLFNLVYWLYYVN
As to the kind of experiment: Two-electrode voltage clamp of β3 homomeric receptors expressed in Xenopus oocytes. The following applies: β3 homomeric receptors; 0.1–300 μM etomidate.
Text: as §1, §2, §3
Prism (version 5.04; GraphPad Software, La Jolla, CA, USA) was used for data analysis. […]

Test [5] deals with T5, α2β3 GABAARs (Homo sapiens, UniProt P28472+P47869).
T5 construct: expressed in transfected cells; host or cells: Xenopus laevis oocytes injected with capped mRNA, α2:β3 20:1
T5 sequence (P47869 29-451): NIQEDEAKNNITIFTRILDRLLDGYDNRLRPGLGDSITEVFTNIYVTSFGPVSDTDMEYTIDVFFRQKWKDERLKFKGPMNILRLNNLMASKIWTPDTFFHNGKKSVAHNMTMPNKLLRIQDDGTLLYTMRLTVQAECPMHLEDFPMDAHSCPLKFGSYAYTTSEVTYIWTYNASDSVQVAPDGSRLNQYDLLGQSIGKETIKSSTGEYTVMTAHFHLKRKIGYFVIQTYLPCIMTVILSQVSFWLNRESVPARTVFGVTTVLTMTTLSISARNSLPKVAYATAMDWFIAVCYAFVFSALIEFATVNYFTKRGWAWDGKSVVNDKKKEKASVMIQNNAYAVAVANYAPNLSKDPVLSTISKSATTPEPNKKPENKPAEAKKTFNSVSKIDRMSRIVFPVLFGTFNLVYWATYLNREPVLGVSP
T5 sequence (P28472 26-473): T4 sequence (P28472 26-473)
Put plainly: Two-electrode voltage clamp of binary α2β3 GABAARs expressed in Xenopus oocytes. The following applies: α2β3 20:1; 100 μM.
Text: as §1, §2, §3, §4, §5

Each structure is given as a SMILES string. Entries after “also recorded” stand apart in the source; their conditions may differ.

T1 sequence (P18507 40-475): as the sequence (P18507 40-475, one chain of several) above
T3 sequence (P18507 40-475, one chain of several): as the sequence (P18507 40-475, one chain of several) above

As to `CCOC(=O)c1cncn1[C@H](C)c1ccccc1` [Etomidate], the “Direct activation by etomidate” value is reported as “not sensitive; also recorded: did not activate” in test [1] (γ2L alone) and “did not activate” in test [3] (α2γ2L, data not shown). For the same molecule, the “E max ± SEM (300 μM etomidate-elicited current normalised against 3 mM GABA response)” value in test [2] (β3γ2L 1:15, -30 mV) stood at 9.9 ± 0.84; in test [2] (β3γ2L 1:50, -60 mV) it was 5.5 ± 0.80; in test [2] (β3γ2L 1:100, -30 mV), 2.8 ± 0.50; in test [2] (β3γ2L 1:100, -60 mV) it was 3.2 ± 0.40. Besides, the “n H ± SEM (Hill slope) of direct activation” value (shortened to “n H ± SEM (Hill slope)”) in test [2] (β3γ2L 1:15, -30 mV) amounted to 1.3 ± 0.33; in test [2] (β3γ2L 1:15, -60 mV), 2.0 ± 0.32; in test [2] (β3γ2L 1:50, -60 mV), 1.3 ± 0.37; in test [2] (β3γ2L 1:100, -30 mV), 1.2 ± 0.50; in test [2] (β3γ2L 1:100, -60 mV), 1.5 ± 0.46. For the same molecule, in test [2] (β3γ2L 1:15, -60 mV), the “E max ± SEM (30 μM etomidate-elicited current normalised against 3 mM GABA response)” value is on record as 20 ± 1.8. The “E max, normalised against 60 mM GABA” value in test [4] was found to be 15 ± 0.79.
Turning to `CC(C)c1cccc(C(C)C)c1O` [Propofol], in test [2] (β3γ2L 1:15, -60 mV), the concentration giving a half-maximal response (EC50) was found to be 85 µM, the “E max ± SEM (300 μM propofol-elicited current normalised against 3 mM GABA response)” value is reported as 5.7 ± 0.55 and the “n H ± SEM (Hill slope)” value was 1.4 ± 0.50. Further, in test [2] (β3γ2L 1:100, -60 mV), the EC50 is 74 µM, the “E max ± SEM (300 μM propofol-elicited current normalised against 3 mM GABA response)” value worked out at 0.64 ± 0.23 and the “n H ± SEM (Hill slope)” value is 2.0 ± 1.2. Besides, the “E max ± SEM (300 μM propofol-elicited current normalised against 3 mM GABA response)” value in test [2] (β3γ2L 1:15, -60 mV, listed as propofol) was “approximately 6”.
`[Cl-].[Cl-].[Zn+2]` [Zn^2+, zinc chloride]: the “Effect of Zn2+ alone on constitutive activity” value in test [1] (28–35 ng/oocyte) is on record as “inhibited”. For the same molecule, the “Effect of Zn2+ alone on baseline current” value is listed as “reduction in inward current; also recorded: sensitive to the inhibition” in test [2] (β3γ2L 1:15), “did not have any effects” in test [2] (β3γ2L 1:50), “did not have any effects” in test [2] (β3γ2L 1:100) and “lack of activity” in test [5]. In addition, the “Effect of Zn2+ alone” value in test [3] (α2γ2L 1:1, 100 μM) was “no function”.
